Assay results taken from PubChem BioAssay (NCI).
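Tested at 5 concentrations; 48 h exposure; 96-well plates; endpoints linearly interpolated, else capped at highest concentration. The concentration for full growth arrest is given as TGI.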

Legend:
Test in all cases: NCI tumour cell line growth inhibition, 48 h
[1] = system: KM12 colon
[2] = system: MALME-3M melanoma
[3] = system: SF-268 CNS
[4] = system: MOLT-4 leukemia
[5] = system: UO-31 renal
[6] = system: MDA-MB-435
[7] = system: CAKI-1 renal
[8] = system: SNB-75 CNS
[9] = system: BT-549 breast
[10] = system: SW-620 colon
[11] = system: NCI-H23 lung
[12] = system: OVCAR-8 ovarian
[13] = system: HL-60(TB) leukemia
[14] = system: HS 578T breast
[15] = system: LOX IMVI melanoma
[16] = system: K-562 leukemia
[17] = system: OVCAR-5 ovarian
[18] = system: MCF7 breast
[19] = system: HOP-62 NSCLC
[20] = system: TK-10 renal
[21] = system: 786-0 renal
[22] = system: COLO 205 colon
[23] = system: A549 NSCLC
[24] = system: HCT-15 colon
[25] = system: NCI/ADR-RES ovarian
[26] = system: SR leukemia
[27] = system: SF-539 CNS
[28] = system: PC-3 prostate
[29] = system: M14 melanoma
[30] = system: SK-MEL-5 melanoma
[31] = system: OVCAR-4 ovarian
[32] = system: SNB-19 CNS
[33] = system: ACHN renal
[34] = system: U251 CNS
[35] = system: UACC-257 melanoma
[36] = system: IGROV1 ovarian
[37] = system: CCRF-CEM leukemia
[38] = system: NCI-H522 lung
[39] = system: HOP-92 NSCLC
[40] = system: SK-OV-3 ovarian
[41] = system: UACC-62 melanoma
[42] = system: HCT-116 colon
[43] = system: MDA-MB-231 breast
[44] = system: SN12C renal
[45] = system: SK-MEL-2 melanoma
[46] = system: DU-145 prostate
[47] = system: SF-295 CNS
[48] = system: EKVX NSCLC
[49] = system: OVCAR-3 ovarian
[50] = system: SK-MEL-28 melanoma
[51] = system: RXF 393 renal
[52] = system: HT29 colon
[53] = system: T-47D breast
[54] = system: NCI-H226 lung
[55] = system: NCI-H460 lung

Measured: TGI

CCCCCCOC(=O)C(N)Cc1ccc(OC)cc1 (stereo not given)
> 100 µM: all assays above
